Among the test systems are HCT-116 colon; SW-620 colon; OVCAR-8 ovarian; OVCAR-3 ovarian; ACHN renal; MALME-3M melanoma; SNB-75 CNS; NCI-H460 lung; SN12C renal; DU-145 prostate.
Holding throughout (assay): NCI anticancer screen, dose series, 48 h

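96-well plates; 48 h exposure; 5 concentrations. Endpoints by linear interpolation between flanking doses. Not reached: highest tested concentration assigned. Abbreviation: GI50, concentration required for 50% inhibition of growth. At the TGI there is no net growth.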 Where only a bound is given, the exact number is not on record here.

Turning to `COc1cc2c(cc1OC)-c1ccc3cc4c(cc3c1N(CCCn1ccnc1)C2)OCO4`, the GI50 was 2.93 µM with HCT-116 colon; 1.58 µM in the assay on SW-620 colon; 5.49 µM in the assay on OVCAR-8 ovarian; 2.26 µM in the assay on OVCAR-3 ovarian; 10.1 µM in the assay on ACHN renal; 2.68 µM with MALME-3M melanoma. Besides, the GI50 in the assay on SNB-75 CNS was 1.75 µM; in the assay on NCI-H460 lung it was 0.527 µM; in the assay on SN12C renal it was 0.382 µM; with DU-145 prostate, 3.21 µM. Also, the TGI came out at 16.2 µM with HCT-116 colon; 21 µM with SW-620 colon; 43.6 µM in the assay with OVCAR-8 ovarian; 5.97 µM in the assay on OVCAR-3 ovarian; 65.9 µM in the assay with ACHN renal; 10.7 µM in the assay with MALME-3M melanoma. Besides, the TGI stood at 19.6 µM in the assay on SNB-75 CNS, 11.3 µM with NCI-H460 lung, 16.9 µM in the assay on SN12C renal and 34.5 µM with DU-145 prostate.
In the case of `CNC(=O)c1ccc(N2C(=S)N(c3ccc(C#N)c(C(F)(F)F)c3)C(=O)C2(C)C)cc1F`, the GI50 in the assay with HCT-116 colon was 23.9 µM; with SW-620 colon, over 52.6 µM; with OVCAR-8 ovarian, 50.2 µM; with OVCAR-3 ovarian it was 36.5 µM; in the assay with ACHN renal it was 22.4 µM; with MALME-3M melanoma it was 20.9 µM. Also, the GI50 with SNB-75 CNS was 42.2 µM; with NCI-H460 lung, 28.2 µM; in the assay on SN12C renal it was 38.6 µM; in the assay with DU-145 prostate, 53.9 µM. Further, the TGI in the assay on HCT-116 colon is over 58.2 µM; in the assay with SW-620 colon, over 100 µM; in the assay on OVCAR-8 ovarian, over 100 µM; in the assay with OVCAR-3 ovarian it was over 84.5 µM; in the assay on ACHN renal it was over 62.9 µM; in the assay with MALME-3M melanoma it was over 82.1 µM. In addition, the TGI with SNB-75 CNS was over 79.9 µM; in the assay on NCI-H460 lung, over 74.3 µM; with SN12C renal, over 100 µM; in the assay on DU-145 prostate, over 100 µM.
Take `C#CC1(OC(C)=O)CCC2C3CC=C4C=C(OC(C)=O)CCC4(C)C3CCC21C` (stereo not given): the TGI in the assay on HCT-116 colon was 44.3 µM; in the assay with SW-620 colon it was 49.3 µM; in the assay with OVCAR-8 ovarian, 46.3 µM; in the assay on OVCAR-3 ovarian it was 41.5 µM; with ACHN renal it was 70.7 µM; in the assay on MALME-3M melanoma, 33.9 µM. For the same compound, the TGI with SNB-75 CNS was over 100 µM; in the assay on NCI-H460 lung it was 61.8 µM; with SN12C renal it was 45.1 µM; with DU-145 prostate, 97.4 µM.
For the compound `Cc1nc2sc(C(=O)Nc3cccc4ccccc34)c(N)c2cc1C(O)c1ccccc1` (stereo not given), the GI50 in the assay on HCT-116 colon was 0.0439 µM; with SW-620 colon it was 0.0377 µM; in the assay on OVCAR-8 ovarian it was 0.101 µM; in the assay with OVCAR-3 ovarian, 0.0317 µM; in the assay with ACHN renal it was 0.0726 µM; with MALME-3M melanoma it was 0.0558 µM. Moreover, the GI50 is 0.0241 µM in the assay on SNB-75 CNS, 0.0381 µM with NCI-H460 lung, 0.0971 µM in the assay with SN12C renal and 0.0804 µM in the assay with DU-145 prostate. Also, the TGI with HCT-116 colon is 10.9 µM; in the assay on SW-620 colon it was 23.4 µM; in the assay with OVCAR-8 ovarian, 71.2 µM; with OVCAR-3 ovarian it was 0.0976 µM; with ACHN renal it was 19.2 µM; in the assay with MALME-3M melanoma, 21.2 µM. Further, the TGI is 11.7 µM in the assay with SNB-75 CNS, 0.449 µM in the assay with NCI-H460 lung, 9.49 µM in the assay on SN12C renal and 6.67 µM with DU-145 prostate.
`Cc1cc(=O)oc2c(C)c(O)ccc12`: the TGI with HCT-116 colon, with SW-620 colon, in the assay on OVCAR-8 ovarian, in the assay on OVCAR-3 ovarian, with ACHN renal and in the assay with MALME-3M melanoma was over 100 µM in each case. Also, the TGI with SNB-75 CNS, in the assay on NCI-H460 lung, in the assay with SN12C renal and in the assay with DU-145 prostate was over 100 µM throughout.
In the case of `O=c1ccs[nH]1`, the TGI in the assay with HCT-116 colon came out at 38.3 µM; in the assay with SW-620 colon it was 50.1 µM; in the assay with OVCAR-8 ovarian, 32.9 µM; in the assay with OVCAR-3 ovarian, 21.7 µM; in the assay with ACHN renal, 17.8 µM; in the assay with MALME-3M melanoma it was 35.5 µM. Also, the TGI with SNB-75 CNS was 36.5 µM; in the assay on NCI-H460 lung, 34.3 µM; with SN12C renal, 28.3 µM; in the assay on DU-145 prostate, over 91.3 µM.
With `CC(=Nc1ccccc1)C1=C(O)C(Cc2ccc(O)cc2)NC1=O` (stereo not given), the GI50 in the assay on HCT-116 colon is 0.0503 µM; in the assay on SW-620 colon, 0.0485 µM; with OVCAR-8 ovarian, 0.255 µM; in the assay on OVCAR-3 ovarian it was 0.0258 µM; in the assay with ACHN renal, 0.0738 µM; in the assay with MALME-3M melanoma it was 0.0477 µM. The GI50 was 0.07 µM in the assay with SNB-75 CNS, 0.0794 µM in the assay with NCI-H460 lung, 0.991 µM with SN12C renal and 0.178 µM in the assay on DU-145 prostate. Also, the TGI was 1.93 µM in the assay on HCT-116 colon; over 100 µM with SW-620 colon; over 100 µM in the assay with OVCAR-8 ovarian; 0.072 µM in the assay with OVCAR-3 ovarian; over 100 µM with ACHN renal; over 100 µM with MALME-3M melanoma. Also, the TGI in the assay with SNB-75 CNS is 0.566 µM; in the assay with NCI-H460 lung, 1.08 µM; in the assay with SN12C renal it was over 100 µM; in the assay on DU-145 prostate, 0.994 µM.
Take `COC(=O)c1cc2c3ccccc3n3c(=O)c4cc5ccccc5nc4c(n1)c23`: the GI50 with HCT-116 colon, in the assay on SW-620 colon, with OVCAR-8 ovarian, in the assay with OVCAR-3 ovarian, with ACHN renal and with MALME-3M melanoma was over 100 µM each time. In addition, the GI50 in the assay with SNB-75 CNS, in the assay on NCI-H460 lung, with SN12C renal and in the assay with DU-145 prostate was over 100 µM each time. For the same compound, the TGI with HCT-116 colon, in the assay with SW-620 colon, in the assay with OVCAR-8 ovarian, in the assay with OVCAR-3 ovarian, in the assay on ACHN renal and with MALME-3M melanoma was over 100 µM in each case. In addition, the TGI in the assay on SNB-75 CNS, in the assay on NCI-H460 lung, in the assay with SN12C renal and with DU-145 prostate was over 100 µM throughout.

For the origin of these results see PubChem BioAssay (NCI).
